Experimental data as given in US8969578B2, “Inhibitors of STAT3” (University of Central Florida Research Foundation, Inc., priority 2008, dated 2015).

System: NIH3T3/vSrc cells
Test: WST-1 cell viability/proliferation assay, NIH3T3/vSrc
Assay type: cell-based, mouse
Protocol: Initial in vitro whole-cell experiments were conducted against normal mouse NIH-3T3 fibroblasts and v-src-transformed counterparts (NIH-3T3/v-src) that harbor aberrant STAT3. Inhibitor effects upon cell viability, proliferation, and cytotoxicity were assessed through WST-1, a cell proliferation reagent that measures the metabolic activity of viable cells. […] It is assumed that the predominantly hydrophobic nature of these compounds facilitated successful permeation of the cell membrane despite the phosphate.

In the case of `CC(C)C[C@H](NC(=O)[C@H](Cc1ccc(OP(=O)(O)O)cc1)NC(=O)c1ccc(C#N)cc1)C(=O)O` [ISS610], the “inhibitor concentration required for suppression in whole cells” value is reported as “millimolar concentrations”.
